# Assay results reported in patent US11725036B2, “Modified lipidated relaxin B chain peptides and their therapeutic use” (Sanofi, priority 2018, dated 2023).
# Read-outs that look alike come from different tables or passages of the source. Starred links: 1 amine or outer side, 2 acyl side, 3 side chain; linkers in the order of their positions; H or OH if unused. Non-standard residues stand in square brackets, D forms with d. Residues, ends and D or L forms follow the SMILES beside them. Groups on a side chain read outwards from the residue. *: point of attachment. X3 = CCCCCCCCCCCCCCCCCC(=O)N[C@@H](CCC(=O)N[C@@H](CCC(=O)N[C@@H](CCC(=O)NCCCOCCOCCOCCCNC(=O)CCC(=O)NCCCOCCOCCOCCCNC(=O)CCC(=O)NCCCOCCOCCOCCCN*)C(=O)O)C(=O)O)C(=O)O; Suc = O=C(CCC(=O)[*:2])[*:1]; αMeK = C[C@](N)(CCCCN)C(=O)O; Aib = CC(C)(N)C(=O)O
# Columns and labels:
# in vivo = experiment: in vivo; parameters: species or system Sprague Dawley rats; conditions: Sprague Dawley, rat; for bioavailability / Cmax / Tmax: sc; for Cmax / Tmax: 3 mg/kg
# Protocol: Prior to the testing of a peptide batch, its purity (HPLC-UV) was determined. Dose was corrected for presence of salts, solvent and purity. Bioanalytical screening method for quantification of peptides in rat: Sprague Dawley rats were dosed with study peptide at a dose of 1 mg/kg intravenously (i.v.) or 3 mg/kg subcutaneously (s.c.) as a solution in PBS (0.2 mg/ml and 0.6 mg/ml respectively). Blood samples were collected after: 0.083, 0.25, 0.5, 1, 2, 4, 8, 24, 48 and 72 h (i.v. route) and 0.25, 0.5, 1, 2, 4, 6, 8, 10, 24, 48 and 72 h (s.c route) post application. Plasma samples were analyzed after protein precipitation via liquid chromatography mass spectrometry (LC/MS). PK parameters and half-life were calculated using Phoenix 64 (WinNonlin 6.4)-Pharsight (Certara™) (non-compartment model). Values below the limit of quantification (BLQ) were replaced by zero for subsequent calculations and PK analysis. T½: in-vivo half-life, time required for test compound plasma concentration to be divided by two during the PK experiment. C0: Extrapolated test compound plasma concentration at t=0 time point (i.v. route). Cmax: maximal test compound plasma concentration at the indicated time point (s.c. route). Tmax: Time point where Cmax was attained. F %: s.c. vs i.v. bioavailability, dose-corrected area under curve (AUC) s.c. route divided by AUC i.v.
# [1] = Solubility testing in buffer; assay type: physicochemical; conditions: target solubility 10.0 mg/ml
# RXFP1 = biological target: T1, RXFP1 (Homo sapiens, UniProt Q9HBX9); experiment: OVCAR5 cAMP assay (HTRF); assay type: cell-based; conditions: for EC50: OVCAR 5 cells expressing endogenous RXFP1, cAMP readout; for Emax: OVCAR 5 cells, maximal cAMP relative to H2-relaxin
# T1 construct: OVCAR5 cells expressing endogenous RXFP1; endogenous in cells; host or cells: OVCAR5
# T1 sequence (Q9HBX9 1-757): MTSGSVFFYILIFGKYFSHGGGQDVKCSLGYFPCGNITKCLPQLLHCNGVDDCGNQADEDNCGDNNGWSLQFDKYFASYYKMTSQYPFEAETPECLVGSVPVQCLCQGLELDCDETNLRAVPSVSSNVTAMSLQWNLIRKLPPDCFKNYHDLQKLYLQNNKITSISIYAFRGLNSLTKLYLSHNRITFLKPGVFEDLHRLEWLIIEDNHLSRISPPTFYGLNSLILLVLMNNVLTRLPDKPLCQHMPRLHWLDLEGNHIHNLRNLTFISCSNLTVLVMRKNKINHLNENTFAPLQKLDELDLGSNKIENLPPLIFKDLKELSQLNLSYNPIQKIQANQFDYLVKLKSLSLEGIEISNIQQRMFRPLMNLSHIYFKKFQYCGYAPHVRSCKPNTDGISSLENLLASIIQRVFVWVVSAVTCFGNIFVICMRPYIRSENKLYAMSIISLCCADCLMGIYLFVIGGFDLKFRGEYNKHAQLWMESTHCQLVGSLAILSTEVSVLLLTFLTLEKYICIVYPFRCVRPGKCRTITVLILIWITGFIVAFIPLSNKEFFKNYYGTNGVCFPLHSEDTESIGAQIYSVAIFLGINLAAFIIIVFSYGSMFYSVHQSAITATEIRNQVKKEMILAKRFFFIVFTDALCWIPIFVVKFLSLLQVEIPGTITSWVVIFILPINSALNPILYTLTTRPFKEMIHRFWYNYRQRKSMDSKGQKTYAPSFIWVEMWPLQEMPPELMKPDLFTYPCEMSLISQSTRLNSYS
# Method in brief: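 Endogenous RXFP1 in OVCAR5 cells, pretreated 40 min at 37° C with 1 mM IBMX, then exposed to increasing peptide concentrations in serum-free medium for 30 min at 37° C. cAMP read by HTRF; EC50 by variable-slope sigmoidal fit, Emax as % of H2-relaxin maximal cAMP in same run.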
# [2] = Stability in human plasma; assay type: in vitro ADME; conditions: for Human Plasma stability % remaining: T = 0, 37° C., 5 μM; for remaining at 1 h, 5 μM / remaining at 4 h, 5 μM: human, plasma (sodium or lithium heparin), 37° C.
# Protocol: (§1) Prior to the testing of stability in plasma (or blood) of a peptide batch, its purity (HPLC-UV) was determined.
# (§2) Rat and Human plasma: anti-coagulant sodium or lithium heparin.
# (§3) 100 μM solution of study compound in 50 mM phosphate buffer pH 7.4.
# (§4) 950 μL plasma (or blood) was pre-incubated for 5 min at 37° C. 50 μL of compound stock solution was added. Final compound concentration=5 μM. Vortex and transfer 150 μL plasma (or blood) into an Eppendorf for each time point. The time points […] were carried out in duplicate for each species.
# (§5) After incubation, 150 μL plasma (or blood) was extracted with 600 μL Acetonitrile containing 1% TFA. Said mixture was then vortexed and centrifuged 10 min at 14600 rpm. 200 μL supernatant was dried under N2. Sample was then reconstituted in 200 μL of H2O/CH3CN 98/2+0.1% FA+50 ng/ml Labetalol and analyzed using the analytical system used in solubility and stability studies.
# (§6) For determination of the amount of the remaining peptide, the peak areas of the target compound at t0 and each time point […] were compared, resulting in “% remaining peptide”, following the equation: % remaining peptide=[(peak area peptide time)×100]/peak area peptide t0. The stability was expressed as “% remaining peptide”.
# Stability in rat plasma = assay type: in vitro ADME; conditions: for Rat plasma stability % remaining: T = 0, 37° C., 5 μM
# Protocol: as §1, §2, §3, §4, §5, §6
# [3] = acetate buffer 50 mM pH 4.5, read-out: Solubility Acetate buffer pH 4.5
# [4] = phosphate buffer 50 mM pH 7.4, read-out: Solubility phosphate buffer pH 7.4
# [5] = rat, plasma (sodium or lithium heparin), 37° C.
"C0 (in vivo; iv, 1 mg/kg) [nM]","half-life (in vivo; iv, 1 mg/kg) [h]",bioavailability (in vivo) [%],Cmax (in vivo) [nM],Tmax (in vivo) [h],"solubility [1, 3] [mg/mL]","solubility [1, 4] [mg/mL]",EC50 (RXFP1) [nM],Emax (RXFP1) [%],Human Plasma stability % remaining [2] [%],"remaining at 1 h, 5 μM [2] [%]","remaining at 4 h, 5 μM [2] [%]",Rat plasma stability % remaining (Stability in rat plasma) [%],"remaining at 1 h, 5 μM (Stability in rat plasma; [5]) [%]","remaining at 4 h, 5 μM (Stability in rat plasma; rat, plasma (sodium or lithium heparin), 4 h, 37° C.) [%]","T½ (h), in-vivo half-life (in vivo; iv, 1 mg/kg) [h]",Structure (SMILES)
4160,6.34,61,1530,10,11.5,11.8,0.07,95,92,94,87,77,100,66,,CCCCCCCCCCCCCCCCCC(=O)N[C@@H](CCC(=O)N[C@@H](CCC(=O)N[C@@H](CCC(=O)NCCCOCCOCCOCCCNC(=O)CCC(=O)NCCCOCCOCCOCCCNC(=O)CCC(=O)NCCCOCCOCCOCCCNC(=O)CCC(=O)NCCCC[C@H](NC(=O)CNC(=O)[C@H](CCC(=O)O)NC(=O)C(C)(C)NC(=O)C(C)(C)NC(=O)[C@@H](NC(=O)[C@H](CCCCNC(C)=O)NC(=O)[C@H](C)NC(=O)[C@H](CCCNC(=N)N)NC(=O)[C@@H](NC(=O)[C@H](CCCCN)NC(=O)[C@H](CCC(=O)O)NC(=O)[C@H](CCCNC(=N)N)NC(=O)CNC(=O)[C@H](CCC(=O)O)NC(=O)[C@H](CC(C)C)NC(C)=O)C(C)C)[C@@H](C)CC)C(=O)N[C@@H](CO)C(=O)N[C@H](C(=O)N[C@@H](Cc1ccccc1)C(=O)N[C@@H](CO)C(=O)N[C@@](C)(CCCCN)C(=O)N[C@@H](CCCNC(=N)N)C(=O)N[C@@H](C)C(=O)N[C@@H](CCCCNC(C)=O)C(N)=O)[C@@H](C)O)C(=O)O)C(=O)O)C(=O)O [compound 7] (Ac-LEGREKVRAK(Ac)I[Aib][Aib]EGK([Suc-X3])STFS[αMeK]RAK(Ac)-NH2)
3090,,80,1990,10,9.34,9.95,0.15,96,87,100,83,100,100,,5.13,CCCCCCCCCCCCCCCCCC(=O)N[C@@H](CCC(=O)N[C@@H](CCC(=O)N[C@@H](CCC(=O)NCCCOCCOCCOCCCNC(=O)CCC(=O)NCCCOCCOCCOCCCNC(=O)CCC(=O)NCCCOCCOCCOCCCNC(=O)CCC(=O)NCCCC[C@H](NC(=O)CNC(=O)[C@H](CCC(=O)O)NC(=O)C(C)(C)NC(=O)C(C)(C)NC(=O)[C@@H](NC(=O)[C@H](CCCCNC(C)=O)NC(=O)[C@H](C)NC(=O)[C@H](CCCNC(=N)N)NC(=O)[C@@H](NC(=O)[C@H](CCCCN)NC(=O)[C@H](CCC(=O)O)NC(=O)[C@H](CCCNC(=N)N)NC(=O)CNC(=O)[C@H](CCC(=O)O)NC(=O)[C@H](CC(C)C)NC(C)=O)C(C)C)[C@@H](C)CC)C(=O)N[C@@H](CO)C(=O)N[C@H](C(=O)N[C@@H](Cc1c[nH]c2ccccc12)C(=O)N[C@@H](CO)C(=O)NC(C)(C)C(=O)N[C@@H](CCCNC(=N)N)C(=O)N[C@@H](CCCCN)C(=O)N[C@@H](CCCCNC(C)=O)C(N)=O)[C@@H](C)O)C(=O)O)C(=O)O)C(=O)O [compound 20] (Ac-LEGREKVRAK(Ac)I[Aib][Aib]EGK([Suc-X3])STWS[Aib]RKK(Ac)-NH2)
